Reference: US10336732B2, “1-heterocyclyl isochromanyl compounds and analogs for treating CNS disorders” (Sunovion Pharmaceuticals Inc., priority 2015, dated 2019)

Tested on: mice
Test: Neuropharmacological assay (SmartCube), behavioral signature of compound-treated mice
Type: in vivo
Settings: i.p. 15 min before behavioral test, most efficacious dose(s) of 3 doses
Description: Neurosci. […] As reported in Roberds, because psychiatric diseases generally result from disorders of cell-cell communication or circuitry, intact systems are useful in detecting improvement in disease-relevant endpoints. These endpoints are typically behavioral in nature, often requiring human observation and interpretation. To facilitate testing of multiple compounds for behavioral effects relevant to psychiatric disease, PsychoGenics, Inc. (Tarrytown, N.Y., “PGI”) developed SmartCube™, an automated system in which behaviors of compound-treated mice are captured by digital video and analyzed with computer algorithms. […] PGI Analytical Systems uses data from SmartCube™ to compare the behavioral signature of a test compound to a database of behavioral signatures obtained using a large set of diverse reference compounds. (The composition of the database as well as validation of the method is further described in Roberds). In this way, the neuropharmacological effects of a test compound can be predicted by similarity to major classes of compounds, such as antipsychotics, anxiolytics and antidepressants.
The SmartCube™ system produces an activity signature indicating the probability that the activity of the test compound at the administered dose matches a given class of neuropharmacological agents. (See, e.g., Roberds, FIGS. 2 and 3). The test compound is simultaneously compared against multiple classes of agents; thus, a separate probability is generated for each behavioral effect measured (e.g., anxiolytic activity, analgesic activity, etc.). In Table 4, these probabilities are reported for each behavioral effect measured as follows:
Provided compounds were dissolved in a mixture of Pharmasolve™ (N-methyl-2-pyrrolidone), polyethylene glycol and propylene glycol, and were injected i.p. 15 min. before the behavioral test. For each compound, injections were administered at 3 different doses. For each behavioral effect measured, results for the most efficacious dose(s) are presented.

SMILES	AD: ADHD (probability that behavioral signature matches class)	AG: analgesic (probability that behavioral signature matches class)	AX: anxiolytic (probability that behavioral signature matches class)	CE: cognitive enhancer (probability that behavioral signature matches class)	DP: anti-depressant (probability that behavioral signature matches class)	HA: hallucinogen (probability that behavioral signature matches class)	MS: mood stabilizer (probability that behavioral signature matches class)	PS: anti-psychotic (probability that behavioral signature matches class)	SD: sedative hypnotic (probability that behavioral signature matches class)	UN: uncharacterized CNS activity (probability that behavioral signature matches class)
c1cc(-c2ccc3c(c2)CCO[C@H]3[C@@H]2CCCN2)on1 [Compound I-56, 5-((R)-1-((S)-pyrrolidin-2-yl)isochroman-6-yl)isoxazole]	++ (5% ≤ ++ <25%)	+++ (25% ≤ +++ <50%)	++ (5% ≤ ++ <25%)	++ (5% ≤ ++ <25%)	+++ (25% ≤ +++ <50%)	+ (LOQ ≤ + <5%)	++ (5% ≤ ++ <25%)	++ (5% ≤ ++ <25%)	+ (LOQ ≤ + <5%)	+ (LOQ ≤ + <5%)
C[C@@]1([C@H]2CCCN2)OCc2cc(F)ccc21 [Compound I-124, (R)-2-((R)-5-fluoro-1-methyl-1,3-dihydroisobenzofuran-1-yl)pyrrolidine]	+ (LOQ ≤ + <5%)	+ (LOQ ≤ + <5%)	+ (LOQ ≤ + <5%)	+ (LOQ ≤ + <5%)	+ (LOQ ≤ + <5%)	+ (LOQ ≤ + <5%)	+ (LOQ ≤ + <5%)	+ (LOQ ≤ + <5%)	+ (LOQ ≤ + <5%)	+ (LOQ ≤ + <5%)
Fc1ccc2c(c1)CO[C@@H]2[C@H]1CCCN1 [Compound I-120, (R)-2-((S)-5-fluoro-1,3-dihydroisobenzofuran-1-yl)pyrrolidine]	+ (LOQ ≤ + <5%)	++ (5% ≤ ++ <25%)	++ (5% ≤ ++ <25%)	+++ (25% ≤ +++ <50%)	++ (5% ≤ ++ <25%)	+ (LOQ ≤ + <5%)	++ (5% ≤ ++ <25%)	++ (5% ≤ ++ <25%)	++ (5% ≤ ++ <25%)	++ (5% ≤ ++ <25%)
c1cc2c(c3c1CO[C@@H]3[C@@H]1CCCN1)OCO2 [Compound I-142, (S)-2-((S)-6,8-dihydro-[1,3]dioxolo[4,5-e]isobenzofuran-8-yl)-pyrrolidine]	+ (LOQ ≤ + <5%)	++ (5% ≤ ++ <25%)	+++ (25% ≤ +++ <50%)	++ (5% ≤ ++ <25%)	++ (5% ≤ ++ <25%)	+ (LOQ ≤ + <5%)	+ (LOQ ≤ + <5%)	++ (5% ≤ ++ <25%)	+ (LOQ ≤ + <5%)	++ (5% ≤ ++ <25%)
c1ccc2c(c1)CCO[C@H]2[C@@H]1COCCN1 [Compound I-76, (S)-3-((R)-isochroman-1-yl)morpholine]	+ (LOQ ≤ + <5%)	++ (5% ≤ ++ <25%)	++ (5% ≤ ++ <25%)	+ (LOQ ≤ + <5%)	++ (5% ≤ ++ <25%)	+ (LOQ ≤ + <5%)	+ (LOQ ≤ + <5%)	++ (5% ≤ ++ <25%)	+ (LOQ ≤ + <5%)	+ (LOQ ≤ + <5%)
c1cc2c(c3c1CCO[C@H]3[C@@H]1CCN1)OCO2 [Compound I-144, (S)-2-((R)-7,9-dihydro-6H-[1,3]dioxolo[4,5-h]isochromen-9-yl)azetidine]	++ (5% ≤ ++ <25%)	++ (5% ≤ ++ <25%)	++ (5% ≤ ++ <25%)	++ (5% ≤ ++ <25%)	+++ (25% ≤ +++ <50%)	+ (LOQ ≤ + <5%)	++ (5% ≤ ++ <25%)	+++ (25% ≤ +++ <50%)	+ (LOQ ≤ + <5%)	+++ (25% ≤ +++ <50%)
Fc1cccc2c1CCO[C@H]2[C@H]1CCCN1 [Compound I-15, (R)-2-((R)-5-fluoroisochroman-1-yl)pyrrolidine]	+ (LOQ ≤ + <5%)	++ (5% ≤ ++ <25%)	+++ (25% ≤ +++ <50%)	++ (5% ≤ ++ <25%)	++ (5% ≤ ++ <25%)	+ (LOQ ≤ + <5%)	+ (LOQ ≤ + <5%)	++ (5% ≤ ++ <25%)	+ (LOQ ≤ + <5%)	+ (LOQ ≤ + <5%)
N#Cc1ccc2c(c1)[C@H]([C@H]1CCCN1)OCC2 [Compound I-41, (R)-1-((R)-pyrrolidin-2-yl)isochroman-7-carbonitrile]	+ (LOQ ≤ + <5%)	++ (5% ≤ ++ <25%)	++ (5% ≤ ++ <25%)	++ (5% ≤ ++ <25%)	+++ (25% ≤ +++ <50%)	+ (LOQ ≤ + <5%)	++ (5% ≤ ++ <25%)	++ (5% ≤ ++ <25%)	++ (5% ≤ ++ <25%)	+ (LOQ ≤ + <5%)

Same assay, conditions: i.p. 15 min before behavioral test, most efficacious dose(s) of 3 doses

SMILES	XG: anxiogenic (probability that behavioral signature matches class)
c1cc(-c2ccc3c(c2)CCO[C@H]3[C@@H]2CCCN2)on1 [Compound I-56, 5-((R)-1-((S)-pyrrolidin-2-yl)isochroman-6-yl)isoxazole]	+ (LOQ ≤ + <5%)
C[C@@]1([C@H]2CCCN2)OCc2cc(F)ccc21 [Compound I-124, (R)-2-((R)-5-fluoro-1-methyl-1,3-dihydroisobenzofuran-1-yl)pyrrolidine]	+ (LOQ ≤ + <5%)
Fc1ccc2c(c1)CO[C@@H]2[C@H]1CCCN1 [Compound I-120, (R)-2-((S)-5-fluoro-1,3-dihydroisobenzofuran-1-yl)pyrrolidine]	+ (LOQ ≤ + <5%)
c1cc2c(c3c1CO[C@@H]3[C@@H]1CCCN1)OCO2 [Compound I-142, (S)-2-((S)-6,8-dihydro-[1,3]dioxolo[4,5-e]isobenzofuran-8-yl)-pyrrolidine]	+ (LOQ ≤ + <5%)
c1ccc2c(c1)CCO[C@H]2[C@@H]1COCCN1 [Compound I-76, (S)-3-((R)-isochroman-1-yl)morpholine]	+ (LOQ ≤ + <5%)
c1cc2c(c3c1CCO[C@H]3[C@@H]1CCN1)OCO2 [Compound I-144, (S)-2-((R)-7,9-dihydro-6H-[1,3]dioxolo[4,5-h]isochromen-9-yl)azetidine]	+ (LOQ ≤ + <5%)
Fc1cccc2c1CCO[C@H]2[C@H]1CCCN1 [Compound I-15, (R)-2-((R)-5-fluoroisochroman-1-yl)pyrrolidine]	+ (LOQ ≤ + <5%)
N#Cc1ccc2c(c1)[C@H]([C@H]1CCCN1)OCC2 [Compound I-41, (R)-1-((R)-pyrrolidin-2-yl)isochroman-7-carbonitrile]	+ (LOQ ≤ + <5%)
